Reference: patent publication US20060116368A1, “4-Piperidinecarboxamide modulators of vanilloid VR1 receptor” (priority 2004, published 2006)

Columns and labels:
[1] = target: T1, hVR1 receptors (Homo sapiens, UniProt Q8NER1); test: Human VR1 binding assay ([3H]RTX); conditions: [3H]RTX binding; membranes of HEK293 cells transfected with human VR1
T1 construct: expressed in transfected cells; host or cells: HEK293
Method: Compounds of the present invention were tested for their ability to inhibit the binding of [^3H] RTX to hVR1 receptors in a [^3H] RTX binding assay as previously described (Zhang, Sui-Po. Improved ligand binding assays for vanilloid receptors. PCT Int. Appl. (2002), WO 0233411 A1 20020425 AN 2002:315209, and Grant, Elfrida R., Dubin, Adrienne E., Zhang, Sui-Po, Zivin, Robert A., Zhong, Zhong Simultaneous intracellular calcium and sodium flux imaging in human vanilloid receptor 1 (VR1)-transfected human embryonic kidney cells: a method to resolve ionic dependence of VR1-mediated cell death. J. Pharmacol. Exp. Ther., 2002, 300(1), 9-17.)
HEK293 cells were transfected with human VR1 vanilloid receptors and washed with Hank's balanced Salt Solution, dissociated with cell dissociation buffer (Sigma), and then centrifuged at 1000×g for 5 min. Cell pellets were homogenized in cold 20 mM HEPES buffer, pH 7.4, containing 5.8 mM NaCl, 320 mM sucrose, 2 mM MgCl2, 0.75 CaCl2 and 5 mM KCl and centrifuged at 1000×g for 15 min. The resultant supernate was then centrifuged at 40000×g for 15 min. The pelleted membranes were stored in a freezer at −80° C.
Approximately 120 μg protein/ml from membranes were incubated with indicated concentrations of [^3H]RTX in 0.5 ml of the HEPES buffer (pH 7.4) containing 0.25 mg/mL fatty acid-free bovine serum albumin at 37° C. for 60 min. The reaction mixture was then cooled to 4° C., added 0.1 mg α1-acid glycoprotein to each sample and incubated at 4° C. for 15 min. The samples were centrifuged at 18500×g for 15 min. The tip of the microcentrifuge tube containing the pellet was cut off. Bound radioactivity was quantified by scintillation counting. Non-specific binding was tested in the presence of 200 nM unlabeled RTX.
Data were calculated according to the equation: % inhibition=(total binding−binding)*100/(total binding−non specific binding). Ki values were calculated using a Prism program.

[2] = target: T2, Human Vanilloid Receptor 1 (Homo sapiens, UniProt Q8NER1); test: Human VR1 functional assay using FLIPR, Protocol 1; format: cell-based; conditions: for inhibition at 9 µM: HEK293, 9 uM, inhibition of capsaicin (EC80)-induced calcium response, HEK 293 cells transfected with hVR1, read-out: h % I (9 uM); for IC50: decreased capsaicin (EC80)-induced calcium response, HEK 293 hVR1, read-out: h IC50
T2 construct: expressed in transfected cells; host or cells: HEK 293
In short: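 Transfected HEK 293 cells, plated 24 h before, were dye-loaded (30 min 37 °C, 30 min RT) and read by FLIPR calcium assay. Compound added with 5 min acquisition, then capsaicin at EC80. EC50 from compound-induced calcium at 5 min; IC50 from reduced capsaicin-induced response.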

[3] = target: T2, Human Vanilloid Receptor 1; test: Human VR1 functional assay using FLIPR, Protocol 2; format: cell-based; conditions: for h % I (1 uM): inhibition of capsaicin (EC80)-induced calcium response; for h % I (1 uM) / % E80 Capsaicin (1.2 uM): HEK 293 stably transfected hVR1; for IC50: decreased capsaicin (EC80)-induced calcium response, HEK 293 stably transfected hVR1, read-out: h IC50; for % E80 Capsaicin (1.2 uM): test compound-induced calcium response (agonist mode)
Method: The functional activity of the test compounds was determined by measuring changes in intracellular calcium concentration using FLIPR™ Calcium-3 Assay Kit and FLIPR™ technology.
HEK 293 cells stably transfected with Human Vanilloid Receptor 1 were maintained at 37° C. and 5% CO2 in: Dulbecco's Modification of Eagle's Medium (4.5 g/L glucose, L-glutamine, sodium pyruvate), 10% FBS, 1× Penicillin-Streptomycin, 400 ug/mL G418 Sulfate. Approximately 24 hours prior to assay, 5,000 cells/well were plated onto a 384-well black clear bottom poly-D-lysine-coated assay plate with a well volume of 25 μL using Titertek Multidrop.
On the day of the assay, the medium was dumped and 50 μL of dye (bulk kit vials diluted with 200 mL buffer) was loaded using Multidrop. Plates were incubated with dye at 37° C. for 30 minutes followed by 30 minutes incubation at room temperature. Then the plates were assayed by FLIPR™ with 2 additions: 12.5 μL test compound with 5 minutes data acquisition followed by 12.5 μL capsaicin at the EC80 concentration.
The EC50 values of test compounds were calculated based on a test compound-induced calcium response at the 5-minute time point. The IC50 values of compounds were calculated based on a decreased capsaicin-induced calcium response in the presence of test compound.

T2 sequence (Q8NER1 whole entry): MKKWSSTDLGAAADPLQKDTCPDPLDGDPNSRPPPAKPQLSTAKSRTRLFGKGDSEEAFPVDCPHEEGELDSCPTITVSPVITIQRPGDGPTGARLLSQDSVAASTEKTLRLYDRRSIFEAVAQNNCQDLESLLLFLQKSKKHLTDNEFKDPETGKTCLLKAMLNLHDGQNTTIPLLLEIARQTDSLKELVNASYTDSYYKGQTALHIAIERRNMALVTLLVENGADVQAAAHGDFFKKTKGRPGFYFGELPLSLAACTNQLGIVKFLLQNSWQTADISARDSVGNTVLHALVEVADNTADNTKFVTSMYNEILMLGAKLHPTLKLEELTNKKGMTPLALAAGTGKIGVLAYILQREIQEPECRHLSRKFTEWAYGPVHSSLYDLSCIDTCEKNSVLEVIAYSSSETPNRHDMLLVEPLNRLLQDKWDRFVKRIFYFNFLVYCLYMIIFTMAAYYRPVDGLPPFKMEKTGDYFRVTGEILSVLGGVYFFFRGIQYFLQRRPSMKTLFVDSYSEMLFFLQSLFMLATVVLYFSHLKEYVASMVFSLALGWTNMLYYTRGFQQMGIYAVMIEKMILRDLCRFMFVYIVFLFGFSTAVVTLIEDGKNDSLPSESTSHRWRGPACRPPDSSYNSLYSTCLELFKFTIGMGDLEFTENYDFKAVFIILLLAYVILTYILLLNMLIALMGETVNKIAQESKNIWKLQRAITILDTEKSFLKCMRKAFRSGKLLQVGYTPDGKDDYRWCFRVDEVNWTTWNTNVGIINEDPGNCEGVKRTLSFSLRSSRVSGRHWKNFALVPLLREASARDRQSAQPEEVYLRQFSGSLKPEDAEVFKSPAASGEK
T1 sequence (Q8NER1 whole entry): as above

SMILES	h % I (1 uM) [3]	IC50 [3]	% E80 Capsaicin (1.2 uM) [3]	also measured
O=C1COc2ccc(NC(=O)C3CCN(c4cc(F)cc(F)c4)CC3)cc2N1 [Example 154, 1-(3,5-Difluoro-phenyl)-piperidine-4-carboxylic acid (3-oxo-3,4-dihydro-2H-benzo[1,4]oxazin-6-yl)-amide]	–	–	–	Ki [1]: 137 nM; inhibition at 9 µM [2]: 96%; IC50 [2]: 370 nM
O=C1COc2ccc(NC(=O)C3CCN(c4ccc(F)c(F)c4)CC3)cc2N1 [Example 155, 1-(3,4-Difluoro-phenyl)-piperidine-4-carboxylic acid (3-oxo-3,4-dihydro-2H-benzo[1,4]oxazin-6-yl)-amide]	–	–	–	Ki [1]: 56 nM; inhibition at 9 µM [2]: 89%; IC50 [2]: 850 nM
O=C1COc2cccc(NC(=O)C3CCN(c4cc(F)c(F)c(F)c4)CC3)c2N1 [Example 169, 1-(3,4,5-Trifluoro-phenyl)-piperidine-4-carboxylic acid (3-oxo-3,4-dihydro-2H-benzo[1,4]oxazin-5-yl)-amide]	9%	–	–	–
O=C1COc2cc(NC(=O)C3CCN(c4cc(F)c(F)c(F)c4)CC3)ccc2N1 [Example 170, 1-(3,4,5-Trifluoro-phenyl)-piperidine-4-carboxylic acid (3-oxo-3,4-dihydro-2H-benzo[1,4]oxazin-7-yl)-amide]	55%	735 nM	–	–
O=C1COc2c(cccc2NC(=O)C2CCN(c3cc(F)c(F)c(F)c3)CC2)N1 [Example 171, 1-(3,4,5-Trifluoro-phenyl)-piperidine-4-carboxylic acid (3-oxo-3,4-dihydro-2H-benzo[1,4]oxazin-8-yl)-amide]	–	–	17%	–
CN1C(=O)COc2ccc(NC(=O)C3CCN(c4cc(F)c(F)c(F)c4)CC3)cc21 [Example 172, 1-(3,4,5-Trifluoro-phenyl)-piperidine-4-carboxylic acid (4-methyl-3-oxo-3,4-dihydro-2H-benzo[1,4]oxazin-6-yl)-amide]	–	–	39%	–
O=C1CSc2ccc(NC(=O)C3CCN(c4cc(F)c(F)c(F)c4)CC3)cc2N1 [Example 173, 1-(3,4,5-Trifluoro-phenyl)-piperidine-4-carboxylic acid (3-oxo-3,4-dihydro-2H-benzo[1,4]thiazin-6-yl)-amide]	37%	1960 nM	–	–
O=C(Nc1ccc2c(c1)NC(=O)C(CCO)O2)C1CCN(c2cc(F)c(F)c(F)c2)CC1 (centres unmarked) [Example 174, 1-(3,4,5-Trifluoro-phenyl)-piperidine-4-carboxylic acid [2-(2-hydroxy-ethyl)-3-oxo-3,4-dihydro-2H-benzo[1,4]oxazin-6-yl]-amide]	99%	4.8 nM	–	–
CCOC(=O)C1(C)Oc2ccc(NC(=O)C3CCN(c4cc(F)c(F)c(F)c4)CC3)cc2NC1=O (centres unmarked) [Example 175, 2-Methyl-3-oxo-6-{[1-(3,4,5-trifluoro-phenyl)-piperidine-4-carbonyl]-amino}-3,4-dihydro-2H-benzo[1,4]oxazine-2-carboxylic acid ethyl ester]	54%	873 nM	–	–
CC1(C(=O)O)Oc2ccc(NC(=O)C3CCN(c4cc(F)c(F)c(F)c4)CC3)cc2NC1=O (centres unmarked) [Example 176, 2-Methyl-3-oxo-6-{[1-(3,4,5-trifluoro-phenyl)-piperidine-4-carbonyl]-amino}-3,4-dihydro-2H-benzo[1,4]oxazine-2-carboxylic acid]	–	–	116%	–
CCOC(=O)C1Oc2ccc(NC(=O)C3CCN(c4cc(F)c(F)c(F)c4)CC3)cc2NC1=O (centres unmarked) [Example 177, 3-Oxo-6-{[1-(3,4,5-trifluoro-phenyl)-piperidine-4-carbonyl]-amino}-3,4-dihydro-2H-benzo[1,4]oxazine-2-carboxylic acid ethyl ester]	–	–	13%	–
O=C(Nc1ccc2c(c1)NC(=O)C(C(=O)O)O2)C1CCN(c2cc(F)c(F)c(F)c2)CC1 (centres unmarked) [Example 178, 3-Oxo-6-{[1-(3,4,5-trifluoro-phenyl)-piperidine-4-carbonyl]-amino}-3,4-dihydro-2H-benzo[1,4]oxazine-2-carboxylic acid]	–	–	80%	–
COC(=O)CC1Oc2ccc(NC(=O)C3CCN(c4cc(F)c(F)c(F)c4)CC3)cc2NC1=O (centres unmarked) [Example 179, (3-Oxo-6-{[1-(3,4,5-trifluoro-phenyl)-piperidine-4-carbonyl]-amino}-3,4-dihydro-2H-benzo[1,4]oxazin-2-yl)-acetic acid methyl ester]	54%	890 nM	–	–
O=C(O)CC1Oc2ccc(NC(=O)C3CCN(c4cc(F)c(F)c(F)c4)CC3)cc2NC1=O (centres unmarked) [Example 180, (3-Oxo-6-{[1-(3,4,5-trifluoro-phenyl)-piperidine-4-carbonyl]-amino}-3,4-dihydro-2H-benzo[1,4]oxazin-2-yl)-acetic acid]	5%	–	–	–
